What was measured:
[1] = Dissolution profile of crystalline drospirenone tablets in acidic medium (USP 27 apparatus 2); type: physicochemical; settings: HCl 0.1 N, regardless of the size of the particle, FIG. 16
Procedure: The dissolution profiles were obtained from tablets containing drospirenone in a crystalline state with different sized particles, using a dissolution apparatus designated in the U.S. Pharmacopoeia, Edition 27, apparatus 2, at 50 rpm and 900 ml of lauryl sulfate 0.07% in a strongly acidic medium, HCl 0.1 N, thermostatized at 37° C.

[2] = Dissolution of drospirenone in methanol as granulation solvent; type: physicochemical
Procedure: About 16.00 ml of the dichloromethane/methanol solution at about a 6:1 ratio were placed in a stainless steel stirring apparatus. Next, about 0.0306 g of ethynylestradiol, non-micronized with a particle size no less than about 50 μm (addition of an excess of about 2% was foreseen to make up for losses during the process), were added under constant stirring. The mixture was shaken/stirred until completely dissolved. About 3.0600 g of drospirenone, non-micronized with a particle size no less than about 50 μm (addition of an excess of about 2% was foreseen to make up for losses during the process), were added under constant stirring until completely dissolved. Once dissolved, about 3.4000 g of polyvinylpyrrolidone K-30 were added with stirring until completely dissolved.
Only about 16 ml methanol was used in this example, which compares to substantially the same volume as the about 16 ml methylene chloride/methanol (about 6:1) used in example 1. […] Recall that in example 1 drospirenone was completely dissolved. Again, the process was conducted in accordance with example 1, including the step of “Granulation—Drying” where a planetary-type mixer was used and the mixture kneaded. The name of the final batch granulated: LPDIMet-16 ml.
In an extra experiment related to this Example 2, in the step “Dissolution of the active ingredients and binder” methanol was added until complete dissolution. […]

C[C@]12CCC(=O)C=C1[C@@H]1C[C@@H]1[C@H]1[C@@H]3[C@@H]4C[C@@H]4[C@@]4(CCC(=O)O4)[C@@]3(C)CC[C@@H]12 [drospirenone, 6β,7β,15β,16β-dimethylene-3-oxo-17α-pregn-4-ene-21,17-carbolactone]
stability of drospirenone in an acidic medium [1]: instability
amount of methanol required for complete dissolution ([2]; about 3.06 g drospirenone and about 0.0306 g ethynylestradiol): about 154.3 ml
dissolution of drospirenone in about 16 ml methanol ([2]; about 3.06 g drospirenone, methanol only): not enough for the total dissolution

Reference: patent US20090227546A1, “PHARMACEUTICAL COMPOSITION OF DROSPIRENONE AND ETHYNYLESTRADIOL” (Laboratories Liconse, S.A., priority 2004, published 2009)
